Source: patent US20250002467A1, “DESIGN, SYNTHESIS AND MECHANISMS OF ANTICANCER ACTIVITY OF NEW ACETYLATED 5-AMINOSALICYLATE-THIAZOLINONE HYBRID DERIVATIVES” (University of Sharjah, priority 2023, published 2025)

Tests used:
Format in all cases: cell-based
MCF7 = experiment: Cell cycle analysis by flow cytometry, MCF7; conditions: 1 μM, up to 72 hours, Control 11.3%
Procedure: The effect of the HH32 and HH33 compounds on the distribution of cell cycle at different time points (2, 4, 8, 24, 48, and 72 hours) was analyzed using flow cytometry. Briefly, the cells were harvested and fixed in 70% ethanol for 24 hours at −20° C. The fixed cells were treated with RNAase […] (Sigma Aldrich, Missouri, USA) and stained with propidium iodide […] (Sigma Aldrich, Missouri, USA). The data were acquired using BD Accuri C6 flow cytometer (Becton Dickenson, San Jose, CA, USA) and analysis was done using Flow Jo software (Tree Star, Inc, Ashland, OR, USA).

A549 cells = experiment: Transcriptomic analysis of HH33-treated A549 cells
Procedure: RNA extraction was carried out followed by cDNA synthesis using SuperScript VILO cDNA Synthesis kit (Invitrogen, Waltham, MA, USA) and amplification using Ion AmpliSeq gene expression core panel primers. The prepared library was purified using Agencourt AMPure XP beads (Beckman Coulter, California, USA) and quantified using Ion Library TaqMan™ Quantitation Kit (Applied Biosystems, Waltham, MA, USA). The libraries were further diluted to […] and pooled equally with four individual samples per pool. The pooled libraries were amplified using emulsion PCR on Ion OneTouch™ 2 instrument (OT2) and the enrichment was performed on Ion OneTouch™ ES following the manufacturer's instruction. Thus, prepared template libraries were then sequenced with Ion S5 XL Semiconductor sequencer using the Ion 540™ Chip. RNA-seq data were analyzed using Ion Torrent Software Suite version 5.4 and the alignment was carried out using modifications of the Torrent Mapping Alignment Program (TMAP) optimizing it for aligning the raw sequencing reads against reference sequence derived from hgl9 (GRCh37) assembly. The specificity and sensitivity was maintained by implementing a two-stage mapping approach by employing BWA-short, BWA-long, SSAHA [31], Super-maximal Exact Matching and Smith Waterman algorithm for optimal mapping. Raw read counts of the targeted genes were performed using Samtools (Samtools view —c -F 4-L bed_file bam_file) and the number of expressed transcripts was confirmed after Fragments Per Kilobase Million (FPKM) normalisation. Differentially expressed gene (DEG) analysis was performed using a script written in R programming language (version 3.6.3) with function calls to DESeq2 package from Bioconductor library sets. Raw read counts from RNASeq were normalized using quantile normalization. All counts ranked “0” were excluded. Differentially expressed genes between the two set of cell lines [HH33-treated (n=3), and untreated (n=3)] were assessed using 2 tailed t-test. Differentially expressed genes with p-value of <0.05, adjusted p-value<0.8 and 5-fold difference were included for pathway analysis using Metascape.

[1] = system: CDK4 knockout HCT116 cells; experiment: Sensitivity and cell cycle of CDK4 knockout versus wild-type HCT116
Procedure: CRISPR-Cas9 was employed to stablish HCT116 CDK4 KO cells. Ribonucleotide protein (RNP) delivery system for CRISPR technique was utilized. All the reagents were purchased for Thermoscientific company, USA. gRNA was used to target CDK4 genes. Lipofectamine™ CRISPRMAX™ Cas9 Transfection Reagent was used to transfect the cells with the gRNA and Cas9. The genomic cleavage efficiency was assessed by immunoblotting, while a scrambled gRNA, Trueguide gRNA Negative control, was used as a negative control in all the steps to ensure the specificity of the target. […] To generate isolated clones with complete knockout, the mixed pool of cells was diluted 1 cell/[…] liquid medium and then dispersed into 96 wells plate. The individual cells were left to form clones. […]
The cytotoxic effects of HH32 and HH33 compounds were evaluated at various concentrations ranging from 0.0001 to 100 μM by sulphrhodamine-B (SRB) assay as described previously. The anti-proliferative activity was expressed as growth inhibitory concentration (IC50) values, which were calculated by the sigmoidal dose-response curve fitting method using Graph pad prism 6 software (GraphPad Software, San Diego, CA, USA).
The effect of the HH32 and HH33 compounds on the distribution of cell cycle at different time points (2, 4, 8, 24, 48, and 72 hours) was analyzed using flow cytometry. […]

[2] = A549, H33-treated vs DMSO-treated, DNA repair pathways
[3] = H33-treated A549 cells/DMSO-treated A549 cells, Apoptosis
[4] = H33-treated A549 cells/DMSO-treated A549 cells, Cell Cycle
[5] = H33-treated A549 cells/DMSO-treated A549 cells, Transcriptional Regulation by TP53

COC(=O)c1cc(NC2=NC(=O)C(=Cc3ccc(N(C)C)cc3)S2)ccc1OC(C)=O [HH33, Methyl 2-acetoxy-5-[(5-(4-dimethylaminobenzylidene)-4 (H)-oxo-1,3-thiazol-2-yl)-amino]benzoate]
G2/M cell cycle arrest (MCF7): 57.7% | Fold change (H_Mean/D_Mean) CLSPN (A549 cells; A549, H33-treated vs DMSO-treated, DNA repair / cell cycle): 0.01798 | Fold change (H_Mean/D_Mean) BARD1 (A549 cells; A549, H33-treated vs DMSO-treated, DNA repair / cell cycle / TP53 regulation): 0.0451 | Fold change (H_Mean/D_Mean) ACTR8 (A549 cells; [2]): 0.01139 | Fold change (H_Mean/D_Mean) CHEK2 (A549 cells; [2]): 0.05943 | Fold change (H_Mean/D_Mean) EYA3 (A549 cells; [2]): 0.02596 | six shared genes (ATAD2, CDCA3, FAMIIIB, CDKN3, HISTIH2AH, MIS18BP1) (A549 cells; A549, confirmed by quantitative RT-PCR): maximally downregulated | apoptotic signaling pathway (A549 cells; A549, hypergeometric test): upregulation | cell cycle progression pathway (A549 cells; A549, hypergeometric test): down-regulation | Fold change BECN1 (A549 cells; [3]): 186.7500 | Fold change CRIP1 (A549 cells; [3]): 199.5714 | Fold change TGFB1 (A549 cells; [3]): 100.8000 | Fold change TNFRSF10C (A549 cells; [3]): 802.5000 | Fold change YWHAH (A549 cells; [3]): 168.8804 | Fold change CDC14A (A549 cells; [4]): 0.01425 | Fold change CEP78 (A549 cells; [4]): 0.01614 | Fold change ODF2 (A549 cells; [4]): 0.005902 | Fold change CCNE1 (A549 cells; [5]): 0.02093 | Fold change CDK9 (A549 cells; [5]): 0.02262 | Fold change COX16 (A549 cells; [5]): 0.04666 | Fold change CSNK2A2 (A549 cells; [5]): 0.05877 | sensitivity and cell cycle distribution, wild-type versus CDK4 knockout cells [1]: no difference
